This note sets out measurements from ChEMBL document CHEMBL1671772, “Predicting hERG activities of compounds from their 3D structures: development and evaluation of a global descriptors based QSAR model” (Eur J Med Chem, 2011).

For assay [1], the target named is T1, Voltage-gated inwardly rectifying potassium channel KCNH2 (Homo sapiens, UniProt Q12809).
Assay [2] deals with T1, Voltage-gated inwardly rectifying potassium channel KCNH2. The source holds these as a separate data set.

T1 sequence (Q12809 whole entry): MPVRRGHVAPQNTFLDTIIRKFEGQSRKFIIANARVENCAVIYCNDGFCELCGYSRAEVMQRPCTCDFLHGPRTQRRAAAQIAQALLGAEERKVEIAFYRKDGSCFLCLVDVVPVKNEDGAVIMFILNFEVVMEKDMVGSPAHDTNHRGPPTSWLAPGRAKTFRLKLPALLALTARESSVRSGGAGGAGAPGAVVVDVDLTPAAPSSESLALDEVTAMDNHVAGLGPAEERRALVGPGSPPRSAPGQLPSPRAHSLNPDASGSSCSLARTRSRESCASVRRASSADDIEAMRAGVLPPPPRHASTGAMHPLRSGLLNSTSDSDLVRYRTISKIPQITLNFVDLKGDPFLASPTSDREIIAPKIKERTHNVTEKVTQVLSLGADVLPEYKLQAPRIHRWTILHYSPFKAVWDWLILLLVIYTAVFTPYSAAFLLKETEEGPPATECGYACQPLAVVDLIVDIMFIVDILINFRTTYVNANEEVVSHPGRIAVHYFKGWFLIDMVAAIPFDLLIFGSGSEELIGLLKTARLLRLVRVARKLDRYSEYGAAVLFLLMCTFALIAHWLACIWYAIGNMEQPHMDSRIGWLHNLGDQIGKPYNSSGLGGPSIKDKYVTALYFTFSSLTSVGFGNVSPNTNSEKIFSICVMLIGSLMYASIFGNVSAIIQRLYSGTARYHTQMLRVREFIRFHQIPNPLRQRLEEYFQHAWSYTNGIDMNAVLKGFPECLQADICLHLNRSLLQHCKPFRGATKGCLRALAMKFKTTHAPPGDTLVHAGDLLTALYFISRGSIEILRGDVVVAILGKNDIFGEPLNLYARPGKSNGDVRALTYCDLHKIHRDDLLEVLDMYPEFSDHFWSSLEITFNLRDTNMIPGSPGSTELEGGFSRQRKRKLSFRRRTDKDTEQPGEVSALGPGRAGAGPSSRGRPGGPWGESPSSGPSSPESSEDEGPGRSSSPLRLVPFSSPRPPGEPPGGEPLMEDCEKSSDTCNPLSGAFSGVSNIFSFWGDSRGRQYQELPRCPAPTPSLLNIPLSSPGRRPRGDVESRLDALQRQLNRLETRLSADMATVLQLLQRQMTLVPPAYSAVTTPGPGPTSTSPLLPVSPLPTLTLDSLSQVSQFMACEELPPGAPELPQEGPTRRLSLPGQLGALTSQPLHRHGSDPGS

Usually IC50 stands for the concentration that gives 50% inhibition. The compound `O=C1NCCN1CCN1CC=C(c2cn(-c3ccc(F)cc3)c3ccc(Cl)cc23)CC1` showed an IC50 in assay [1] of 0.01 µM. In the case of `COC(=O)[C@@H]1[C@H]2CC[C@@H](C[C@@H]1O)N2C`, half-maximal inhibition in assay [1] (IC50) required 417 µM. As to `CCOC(=O)C1C(OC(=O)c2ccccc2)CC2CCC1N2C` (stereo not drawn), half-maximal inhibition in assay [1] (IC50) was put at 1.2 µM. As to `O=C1NCCN1CCN1CCC(c2cn(-c3ccc(F)cc3)c3ccccc23)CC1`, the half-maximal inhibitory concentration (IC50) in assay [1] was 0.00692 µM. For the compound `CCC1OC(=O)C(C)C(OC2CC(C)(OC)C(O)C(C)O2)C(C)C(OC2OC(C)CC(N(C)C)C2O)C(C)(O)CC(C)/C(=N/OCOCCOC)C(C)C(O)C1(C)O` (stereo not drawn), the IC50 in assay [1] is 36.3 µM.

As for `c1ccc(-c2[nH]c3ccccc3c2C2CC3CCC(C2)N3c2ccccc2)cc1` (stereo not drawn), the 50% inhibitory concentration (IC50) in assay [1] is 0.0178 µM.

In assay [1], `CN1C2CCC1C(C(=O)O)C(OC(=O)c1ccccc1)C2` (stereo not drawn) had a concentration for half-maximal inhibition (IC50) of 3980 µM. This counts as millimolar. As to `CCNCCc1cccc(C(F)(F)F)c1`, the IC50 in assay [1] was 537 µM. Compound `COc1ccc(CC(=O)NCc2ccccc2-c2ccccc2C(=O)NCCc2cccnc2)cc1` showed an IC50 in assay [1] of 10 µM.

In turn, `Cc1cn2c(N)c(Cl)cc(C(=O)NCC3CCN(CC(C)C)CC3)c2n1` had an IC50 in assay [1] of 2.57 µM. The same measure, in the same setting: with `CC(C)(CN1CCC(=C2c3ccc(F)cc3COc3ccccc32)CC1)C(=O)O` the figure was 10 µM; with `CO[C@@H]1[C@@H](O[C@@H]2O[C@H](C)[C@@H](O[C@H]3C[C@@](C)(O)[C@@H](OC(=O)CC(C)C)[C@H](C)O3)[C@H](N(C)C)[C@H]2O)[C@@H](CC=O)C[C@@H](C)[C@@H](O)/C=C\C=C\C[C@@H](C)OC(=O)C[C@H]1OC(C)=O`, 102 µM; with `CCC1OC(=O)C(C)C(OC2CC(C)(OC)C(O)C(C)O2)C(C)C(OC2OC(C)CC(N(C)C)C2O)C(C)(OC)CC(C)C(=O)C(C)C(O)C1(C)O` (stereo not drawn), 33.1 µM.

Consider `COc1ccc(CC(=O)Nc2cc3c(cc2[N+](=O)[O-])OC(C)(C)[C@H](O)[C@H]3NC2CC2)cc1`, for which, in assay [1], half-maximal inhibition (IC50) was put at 43.7 µM. The compound `CC1=C2C3OC(=O)C(C)C3C(O)CC2(C)C=CC1=O` (stereo not drawn) showed a concentration for half-maximal inhibition (IC50) in assay [1] of 110 µM. On the same count and under the same terms, next, `CCCC1NC(C)C2C(=O)N=C(c3cc(S(=O)(=O)N4CCN(CC)CC4)ccc3OCC)NN12` (stereo not drawn): 12.9 µM; `CC(=O)NC(=O)C1CCC(C2N=CC(c3cccc(Br)c3)=N2)CC1` (stereo not drawn): 0.501 µM; `CCCCCCCN(CC)CCCCc1ccc([N+](=O)[O-])cc1`: 0.00219 µM.

On to `Fc1ccc(-n2cc(C3CCNCC3)c3cc(Cl)ccc32)cc1`, for which the IC50 in assay [1] was 0.204 µM. `Fc1ccc(-n2cc(C3CCN(CCN4CCN=C4S)CC3)c3ccccc32)cc1` had a 50% inhibitory concentration (IC50) in assay [1] of 0.00617 µM. Compared with the last compound, the IC50 is about 33-fold lower. On to `CC(C)(C)c1ccc2c(ccn2-c2ccc(F)cc2)c1`, for which the IC50 in assay [1] is 10 µM. This IC50 is about 1600-fold higher than that of the compound before. As usually defined, the pIC50 is −log10 of the IC50, conventionally taken in molar units. Low readings indicate a high IC50, high ones a low IC50. For `CCc1cn(-c2ccc(F)cc2)c2ccc(Cl)cc12`, the negative-log IC50 (pIC50) in assay [2] stood at 2.46.

In the case of `CC(=O)c1cn(-c2ccc(F)cc2)c2ccc(Cl)cc12`, the concentration for half-maximal inhibition (IC50) in assay [1] was 10 µM. That is a double-digit micromolar value.

In assay [1], `O=C(OC1Cc2c(O)cc(O)cc2OC1c1cc(O)c(O)c(O)c1)c1cc(O)c(O)c(O)c1` (stereo not drawn) gave an IC50 of 6.03 µM.

As for `CC(C)(C)c1ccc(NC(=O)N2CCN(c3ncccc3Cl)CC2)cc1`, half-maximal inhibition in assay [1] (IC50) was put at 1 µM. In turn, `CCCc1cn(-c2ccc(F)cc2)c2ccc(Cl)cc12` showed a negative-log IC50 (pIC50) in assay [2] of 1.59. In assay [2], `CC(O)c1cn(-c2ccc(F)cc2)c2ccc(Cl)cc12` (stereo not drawn) yielded a pIC50 of 2.34.

In turn, `CC(C)c1cn(-c2ccc(F)cc2)c2ccc(Cl)cc12` showed an IC50 in assay [1] of 10 µM. As to `CCC(=O)c1cn(-c2ccc(F)cc2)c2ccc(Cl)cc12`, the pIC50 in assay [2] was 2.7. Take `O=C1NCCN1CCN1CCC(c2cn(C3CCCCC3)c3ccc(Cl)cc23)CC1`: the IC50 in assay [1] was 0.138 µM. In other words, the sub-micromolar range. The compound `CCC(O)c1cn(-c2ccc(F)cc2)c2ccc(Cl)cc12` (stereo not drawn) yielded a pIC50 in assay [2] of 2.66. Take `CCC(O)(CC)c1cn(-c2ccc(F)cc2)c2ccc(Cl)cc12`: inhibition in assay [1] was half-maximal at 15.8 µM (IC50). `O=C1NCCN1CCN1CCC(C2CN(c3ccc(F)cc3)c3ccccc32)CC1` (stereo not drawn) showed an IC50 in assay [1] of 0.0234 µM. With `CN1CC(=O)N2[C@H](c3ccc4c(c3)OCO4)c3[nH]c4ccccc4c3C[C@@H]2C1=O`, the IC50 in assay [1] is 100 µM. Take `COC(=O)C1=CCC2CCC1N2C` (stereo in doubt; 21): the half-maximal inhibitory concentration (IC50) in assay [1] is 8.91 µM. Take `COC(=O)C1=CCC2CCC1N2C` (stereo in doubt; 41): in assay [1], it took 170 µM to reach half-maximal inhibition (IC50). Turning to `COc1ccc2cc3[n+](cc2c1OC)CCc1cc2c(cc1-3)OCO2` [BERBERINE], in assay [1], the IC50 was 66.1 µM. On the same count and under the same terms, with `CC(C)(C)N1CCC(c2ccccc2)(c2ccccc2)CC1` [BUDIPINE] the figure was 0.851 µM. Turning to `NC(=O)N1c2ccccc2C=Cc2ccccc21` [CARBAMAZEPINE], the IC50 in assay [1] is 105 µM. Still for that read-out and setting: with `COc1cc(N)c(Cl)cc1C(=O)NC1CCN(Cc2ccccc2)CC1` [CLEBOPRIDE] the figure was 0.603 µM; with `Clc1ccccc1C(c1ccccc1)(c1ccccc1)n1ccnc1` [CLOTRIMAZOLE], 3.02 µM; with `CCCCc1oc2ccc(NS(C)(=O)=O)cc2c1C(=O)c1ccc(OCCCN(CCCC)CCCC)cc1` [DRONEDARONE], 0.316 µM. `CCOP(=O)(Sc1ccccc1)Sc1ccccc1` [EDIFENPHOS] had an IC50 in assay [1] of 50.1 µM. In assay [1], `CN(C)CCCn1cc(C2=C(c3c[nH]c4ccccc34)C(=O)NC2=O)c2ccccc21` [GF-109203] had an IC50 of 1 µM. This IC50 lies about 50-fold lower than the previous one.

In assay [1], `CC(C(O)c1ccc(O)cc1)N1CCC(Cc2ccccc2)CC1` (stereo not drawn) [IFENPRODIL] showed an IC50 of 0.1 µM. Compared with the last compound, the IC50 is about 10-fold lower.

In the case of `COC(=O)C1=C(C)NC(C)=C(C(=O)OC(C)C)C1c1cccc2nonc12` (stereo not drawn) [ISRADIPINE], half-maximal inhibition in assay [1] (IC50) was put at 50.1 µM.

`CCCCN1CCCC[C@H]1C(=O)Nc1c(C)cccc1C` [LEVOBUPIVACAINE] showed an IC50 in assay [1] of 20.9 µM. For `CCC(=O)O[C@@](Cc1ccccc1)(c1ccccc1)[C@@H](C)CN(C)C` [LEVOPROPOXYPHENE], half-maximal inhibition in assay [1] (IC50) required 2.75 µM.

`O=C(OC1CC2CC3CC(C1)N2CC3O)c1c[nH]c2ccccc12` (stereo not drawn) [MDL-74156] gave an IC50 in assay [1] of 12 µM. This IC50 is about 4.4-fold higher than that of the compound before. `Cc1cccc(C)c1NC(=O)C1CCCCN1C` (stereo not drawn) [MEPIVACAINE] showed a concentration for half-maximal inhibition (IC50) in assay [1] of 155 µM.

On to `Cc1cccc(C)c1OCC(C)N` (stereo not drawn) [MEXILETINE], for which the 50% inhibitory concentration (IC50) in assay [1] was 10 µM. `O=C(NCCN1CCOCC1)c1ccc(Cl)cc1` [MOCLOBEMIDE]: inhibition in assay [1] was half-maximal at 79.4 µM (IC50).

Consider `CCOc1cc(N)c(Cl)cc1C(=O)NCC1CN(Cc2ccc(F)cc2)CCO1` (stereo not drawn) [MOSAPRIDE], for which, in assay [1], the half-inhibitory concentration (IC50) was 4.79 µM. The same measure, in the same setting: with `Cc1cc2c(s1)Nc1ccccc1N=C2N1CCN(C)CC1` [OLANZAPINE] the figure was 0.204 µM. The compound `COc1ccc(Cc2nccc3cc(OC)c(OC)cc23)cc1OC` [PAPAVERINE] gave a half-maximal inhibitory concentration (IC50) in assay [1] of 7.24 µM. This IC50 is about 35-fold higher than that of the compound before. For the compound `CCCC(C)C1(CC)C(=O)NC(=O)NC1=O` (stereo not drawn) [PENTOBARBITAL], the half-maximal inhibitory concentration (IC50) in assay [1] was 132 µM. This IC50 lies about 18-fold higher than the previous one. The compound `CCCN1C[C@H](CSC)C[C@@H]2c3cccc4[nH]cc(c34)C[C@H]21` [PERGOLIDE] showed an IC50 in assay [1] of 0.12 µM. As to `O=C1CCC(c2ccc(Nc3ccncc3)cc2)=NN1` [SENAZODAN], in assay [1], the concentration for half-maximal inhibition (IC50) is 1.05 µM. Compared with the last compound, the IC50 is about 8.8-fold higher.
